# Residues, ends and D or L forms follow the SMILES beside them.
# Columns and labels:
# E. coli ATCC 25922 = format: cell-based, Escherichia coli; settings: ATCC 25922, 18 h
# Excerpt: (§1) E. coli ML35p, Listeria monocytogenes EGD, methicillin-resistant Staphylococcus aureus (MRSA) ATCC 33591 were kindly provided by Prof. Robert Lehrer (University of California, Los Angeles, CA, USA); E. coli ATCC 25922, E. coli M15, Pseudomonas aeruginosa ATCC 27853, S. aureus ATCC 25923 were provided by Dr. Elena Ermolenko (Institute of Experimental Medicine, St-Petersburg, Russia); drug-resistant clinical isolates were provided by Prof. Gennadiy Afinogenov (Saint Petersburg State University, Russia); S. aureus 710A has been described previously. The following clinical isolates of bacteria were used: P.s aeruginosa resistant to aztreonam, ceftazidime, cefotaxime (obtained from the urine of a patient with cystitis), Acinetobacter baumannii resistant to meropenem (from an infected wound); Staphylococcus intermedius (from an infected wound caused by a dog bite) resistant to ciprofloxacin, cefuroxime, clindamycin, erythromycin, rifampin, gentamicin, benzylpenicillin, oxacillin.
# (§2) This assay was applied to determine the MIC, according to the guidelines of the Clinical and Laboratory Standards Institute, using Mueller Hinton (MH) Broth. We prepared 2x stocks of peptides and serially diluted them in sterile PBS instead of Mueller Hinton Broth, so that the treatment of the bacteria with the peptides was carried out in a medium containing 50% of MH and 50% of PBS, as described. The overnight cultures of each strain were transferred to fresh MH media and further incubated to obtain a mid-logarithmic-growth-phase culture of bacteria. The absorbance of each bacterial suspension was measured at 620 nm, and bacteria were then diluted to approximately 2 × 10^5 CFU/mL. Then, 50 µL of the suspensions were mixed with 50 µL of the peptide dilutions in the wells of a microtiter plate (pre-treated for 1 h at 37 °C with 0.2% bovine serum albumin (BSA) in water, sterilized by filtration, to diminish the non-specific binding of the peptides to the plastic surfaces).
# E. coli M15 = format: cell-based, Escherichia coli; settings: M15, 18 h
# Excerpt: as §1, §2
# Escherichia coli ML35p = format: cell-based; settings: broth microdilution, 50% Mueller Hinton broth / 50% PBS, 18 h at 37 °C, median of 3–5 experiments in triplicates
# Excerpt: as §1, §2
# [1] = test system: Listeria monocytogenes EGD; format: cell-based; settings: 18 h
# Excerpt: as §1, §2
# [2] = test system: Pseudomonas aeruginosa ATCC 27853; format: cell-based; settings: ATCC 27853, 18 h
# Excerpt: as §1, §2
# [3] = test system: Staphylococcus aureus 710A; format: cell-based; settings: 18 h
# Excerpt: as §1, §2
# MRSA ATCC 33591 = format: cell-based, Staphylococcus aureus; settings: ATCC 33591, 18 h
# Excerpt: as §1, §2
# S. aureus ATCC 25923 = format: cell-based, Staphylococcus aureus; settings: ATCC 25923, 18 h
# Excerpt: as §1, §2
# S. aureus c.i. = format: cell-based, Staphylococcus aureus; settings: 18 h
# Excerpt: as §1, §2
# P. aeruginosa c.i. = format: cell-based, Pseudomonas aeruginosa; settings: 18 h
# Excerpt: as §1, §2
# [4] = test system: Acinetobacter baumanii c.i.; format: cell-based, Acinetobacter baumannii; settings: 18 h
# Excerpt: as §1, §2
# [5] = test system: Staphylococcus intermidius; format: cell-based, Staphylococcus intermedius; settings: 18 h
# Excerpt: as §1, §2
# [6] = test system: set of Gram-negative and Gram-positive bacteria, including drug-resistant clinical isolates; format: cell-based; settings: 12 strains; median MICs used; MIC > 16 µM taken as 32 µM
# Method: To obtain a global assessment of the effect on antimicrobial activity, the geometric mean of the MIC (G-MIC) was calculated, and from this, the overall improvement or impoverishment with respect to arenicin-1. In general, inverting the symmetry or decreasing the charge had detrimental effects.
# The overall activity against a set of tested bacterial strains was determined by way of the commonly used geometric mean of measured MIC values. […] At the same time, the geometric mean can still discriminate antimicrobial agents showing minor variations in activity; in other words, it has a better “resolution” than the median MIC (MIC50). Some mathematical basics for choosing the geometric mean for antimicrobial activity comparison are further discussed in the Supplementary Chapter S3.
# [7] = test system: human erythroleukemia K-562 cells; format: cell-based; settings: 24 h
# Method: The standard MTT ((3-(4,5-Dimethylthiazol-2-yl)-2,5-diphenyltetrazolium bromide) test was used for the examination of the cytotoxic activity of AMPs towards human erithroleukemia cells K-562. The cells were purchased from Biolot (Saint Petersburg, Russia) and were grown in RPMI 1640 medium (Biolot, Saint Petersburg, Russia) supplemented with glutamine and 10% FCS. Before the experiment, the culturing medium was replaced with serum-free RPMI 1640. Serial dilutions of the peptides in RPMI were plated in sterile 96-well microplates, and the target cells were dispensed to the microplates (10^5 cells/well in RPMI 1640). The plates were incubated for 24 h at 37 °C under 5% CO2. Cell-free media and cells incubated without peptides served as controls. Four hours before the incubation ended, MTT in PBS (5 mg/mL) was added to each well. After the incubation was stopped by adding isopropanol/ 0.04 M HCl, the optical density was measured at 540 nm, subtracting the background absorbance at 690 nm. Toxicity was determined by nonlinear regression analysis of the corresponding dose–response curves using the Sigma Plot 11 program to calculate the IC50 values (the concentration of the test substance that reduced the OD540 capacity by 50%).
structure (smiles),measurement,setting,value
"CC(C)C[C@@H]1NC(=O)[C@H](C(C)C)NC(=O)CNC(=O)[C@H](CCCNC(=N)N)NC(=O)[C@H](C(C)C)NC(=O)[C@H](CCCNC(=N)N)NC(=O)[C@H](C(C)C)NC(=O)[C@H](Cc2ccc(O)cc2)NC(=O)[C@H](C)NC(=O)[C@H](Cc2ccc(O)cc2)NC(=O)[C@H](C(C)C)NC(=O)[C@@H](NC(=O)[C@H](Cc2c[nH]c3ccccc23)NC(=O)[C@@H](N)CCCNC(=N)N)CSSC[C@@H](C(=O)N[C@@H](Cc2c[nH]c3ccccc23)C(=O)O)NC(=O)[C@H](CCCNC(=N)N)NC(=O)[C@H](CCCNC(=N)N)NC(=O)[C@H](Cc2ccc(O)cc2)NC(=O)[C@H](CCCNC(=N)N)NC(=O)[C@H](C(C)C)NC1=O [AR, Arenicin-1] (HELM PEPTIDE1{R.W.C.V.Y.A.Y.V.R.V.R.G.V.L.V.R.Y.R.R.C.W}$PEPTIDE1,PEPTIDE1,3:R3-20:R3$$$V2.0)",Minimal Inhibitory Concentrations (MIC),E. coli ATCC 25922,2 µM
same,Minimal Inhibitory Concentrations (MIC),E. coli M15,2 µM
same,Minimal Inhibitory Concentrations (MIC),Escherichia coli ML35p,1 to 2 µM
same,Minimal Inhibitory Concentrations (MIC),[1],1 to 2 µM
same,Minimal Inhibitory Concentrations (MIC),[2],2 µM
same,Minimal Inhibitory Concentrations (MIC),[3],2 µM
same,Minimal Inhibitory Concentrations (MIC),MRSA ATCC 33591,4 µM
same,Minimal Inhibitory Concentrations (MIC),S. aureus ATCC 25923,2 µM
same,Minimal Inhibitory Concentrations (MIC),S. aureus c.i.,4 µM
same,Minimal Inhibitory Concentrations (MIC),P. aeruginosa c.i.,4 µM
same,Minimal Inhibitory Concentrations (MIC),[4],4 µM
same,Minimal Inhibitory Concentrations (MIC),[5],8 µM
same,G-MIC (geometric mean of all determined MICs),[6],2.7 µM
same,IC50,[7],17.9 µM
"CC(C)C[C@@H]1NC(=O)[C@H](C(C)C)NC(=O)CNC(=O)[C@H](CCCNC(=N)N)NC(=O)[C@H](C(C)C)NC(=O)[C@H](CCCNC(=N)N)NC(=O)[C@H](C(C)C)NC(=O)[C@H](Cc2ccc(O)cc2)NC(=O)[C@H](C)NC(=O)[C@H](Cc2ccc(O)cc2)NC(=O)[C@H](C(C)C)NC(=O)[C@@H](NC(=O)[C@H](Cc2ccccc2)NC(=O)[C@@H](N)CCCNC(=N)N)CSSC[C@@H](C(=O)N[C@@H](Cc2ccccc2)C(=O)O)NC(=O)[C@H](CCCNC(=N)N)NC(=O)[C@H](CCCNC(=N)N)NC(=O)[C@H](Cc2ccc(O)cc2)NC(=O)[C@H](CCCNC(=N)N)NC(=O)[C@H](C(C)C)NC1=O [AR-F] (HELM PEPTIDE1{R.F.C.V.Y.A.Y.V.R.V.R.G.V.L.V.R.Y.R.R.C.F}$PEPTIDE1,PEPTIDE1,3:R3-20:R3$$$V2.0; N-terminus and C-terminus assumed)",Minimal Inhibitory Concentrations (MIC),E. coli ATCC 25922,1 µM
same,Minimal Inhibitory Concentrations (MIC),E. coli M15,1 µM
same,Minimal Inhibitory Concentrations (MIC),Escherichia coli ML35p,1 µM
same,Minimal Inhibitory Concentrations (MIC),[1],2 µM
same,Minimal Inhibitory Concentrations (MIC),[2],1 µM
same,Minimal Inhibitory Concentrations (MIC),[3],2 µM
same,Minimal Inhibitory Concentrations (MIC),MRSA ATCC 33591,2 µM
same,Minimal Inhibitory Concentrations (MIC),S. aureus ATCC 25923,2 µM
same,Minimal Inhibitory Concentrations (MIC),S. aureus c.i.,4 µM
same,Minimal Inhibitory Concentrations (MIC),P. aeruginosa c.i.,2 µM
same,Minimal Inhibitory Concentrations (MIC),[4],2 µM
same,Minimal Inhibitory Concentrations (MIC),[5],4 µM
same,G-MIC (geometric mean of all determined MICs),[6],1.8 µM
same,IC50,[7],9.3 µM
"CC(C)C[C@@H]1NC(=O)[C@H](C(C)C)NC(=O)CNC(=O)[C@H](CCCNC(=N)N)NC(=O)[C@H](C(C)C)NC(=O)[C@H](CC(C)C)NC(=O)[C@H](C(C)C)NC(=O)[C@H](CCCNC(=N)N)NC(=O)[C@H](Cc2ccc(O)cc2)NC(=O)[C@H](CCCNC(=N)N)NC(=O)[C@H](CCCNC(=N)N)NC(=O)[C@@H](NC(=O)[C@@H](N)Cc2c[nH]c3ccccc23)CSSC[C@@H](C(=O)N[C@@H](Cc2c[nH]c3ccccc23)C(=O)O)NC(=O)[C@H](CCCNC(=N)N)NC(=O)[C@H](CCCNC(=N)N)NC(=O)[C@H](Cc2ccc(O)cc2)NC(=O)[C@H](CCCNC(=N)N)NC(=O)[C@H](C(C)C)NC1=O [ARs-C] (HELM PEPTIDE1{W.C.R.R.Y.R.V.L.V.R.G.V.L.V.R.Y.R.R.C.W}$PEPTIDE1,PEPTIDE1,2:R3-19:R3$$$V2.0; N-terminus assumed)",Minimal Inhibitory Concentrations (MIC),E. coli ATCC 25922,2 µM
same,Minimal Inhibitory Concentrations (MIC),E. coli M15,2 µM
same,Minimal Inhibitory Concentrations (MIC),Escherichia coli ML35p,1 µM
same,Minimal Inhibitory Concentrations (MIC),[1],1 µM
same,Minimal Inhibitory Concentrations (MIC),[2],1 µM
same,Minimal Inhibitory Concentrations (MIC),[3],2 to 4 µM
same,Minimal Inhibitory Concentrations (MIC),MRSA ATCC 33591,4 to 8 µM
same,Minimal Inhibitory Concentrations (MIC),S. aureus ATCC 25923,4 µM
same,Minimal Inhibitory Concentrations (MIC),S. aureus c.i.,16 µM
same,Minimal Inhibitory Concentrations (MIC),P. aeruginosa c.i.,16 µM
same,Minimal Inhibitory Concentrations (MIC),[4],2 µM
same,Minimal Inhibitory Concentrations (MIC),[5],8 µM
same,G-MIC (geometric mean of all determined MICs),[6],3.2 µM
same,IC50,[7],11.6 µM
"CC(C)C[C@@H]1NC(=O)[C@H](C(C)C)NC(=O)[C@H](CCCNC(=N)N)NC(=O)[C@H](Cc2ccc(O)cc2)NC(=O)[C@H](CCCNC(=N)N)NC(=O)[C@H](CCCNC(=N)N)NC(=O)[C@@H](NC(=O)[C@@H](N)Cc2c[nH]c3ccccc23)CSSC[C@H](NC(=O)[C@@H](N)Cc2c[nH]c3ccccc23)C(=O)N[C@@H](CCCNC(=N)N)C(=O)N[C@@H](CCCNC(=N)N)C(=O)N[C@@H](Cc2ccc(O)cc2)C(=O)N[C@@H](CCCNC(=N)N)C(=O)N[C@@H](C(C)C)C(=O)N[C@@H](CC(C)C)C(=O)N[C@@H](C(C)C)C(=O)N[C@H](C(=O)N[C@@H](CN)C(N)=O)CCCNC(=O)[C@H](C(C)C)NC1=O [ARs-C-B] (HELM PEPTIDE1{W.C.R.R.Y.R.V.L.V.[Orn].[NC[C@H](N[*:1])C(=O)[*:2]].[am]}|PEPTIDE2{W.C.R.R.Y.R.V.L.V}$PEPTIDE1,PEPTIDE2,2:R3-2:R3|PEPTIDE1,PEPTIDE2,10:R3-9:R2$$$V2.0; N-terminus assumed)",Minimal Inhibitory Concentrations (MIC),E. coli ATCC 25922,4 µM
same,Minimal Inhibitory Concentrations (MIC),E. coli M15,8 µM
same,Minimal Inhibitory Concentrations (MIC),Escherichia coli ML35p,1 to 2 µM
same,Minimal Inhibitory Concentrations (MIC),[1],2 µM
same,Minimal Inhibitory Concentrations (MIC),[2],1 µM
same,Minimal Inhibitory Concentrations (MIC),[3],4 µM
same,Minimal Inhibitory Concentrations (MIC),MRSA ATCC 33591,8 µM
same,Minimal Inhibitory Concentrations (MIC),S. aureus ATCC 25923,4 µM
same,Minimal Inhibitory Concentrations (MIC),S. aureus c.i.,4 to 8 µM
same,Minimal Inhibitory Concentrations (MIC),P. aeruginosa c.i.,16 µM
same,Minimal Inhibitory Concentrations (MIC),[4],8 to 16 µM
same,Minimal Inhibitory Concentrations (MIC),[5],4 µM
same,G-MIC (geometric mean of all determined MICs),[6],4.4 µM
same,IC50,[7],39 µM

# From publication PMC6627698, “Redesigning Arenicin-1, an Antimicrobial Peptide from the Marine Polychaeta Arenicola marina, by Strand Rearrangement or Branching, Substitution of Specific Residues, and Backbone Linearization or Cyclization” (Marine Drugs, 2019)
